{"source": "ChEMBL document CHEMBL1201862", "about": "“PubChem BioAssay data set” (2004)", "key": {"[1]": {"target": "T1, Cannabinoid receptor 2 (Homo sapiens, UniProt P34972)", "T1 sequence (P34972 whole entry)": "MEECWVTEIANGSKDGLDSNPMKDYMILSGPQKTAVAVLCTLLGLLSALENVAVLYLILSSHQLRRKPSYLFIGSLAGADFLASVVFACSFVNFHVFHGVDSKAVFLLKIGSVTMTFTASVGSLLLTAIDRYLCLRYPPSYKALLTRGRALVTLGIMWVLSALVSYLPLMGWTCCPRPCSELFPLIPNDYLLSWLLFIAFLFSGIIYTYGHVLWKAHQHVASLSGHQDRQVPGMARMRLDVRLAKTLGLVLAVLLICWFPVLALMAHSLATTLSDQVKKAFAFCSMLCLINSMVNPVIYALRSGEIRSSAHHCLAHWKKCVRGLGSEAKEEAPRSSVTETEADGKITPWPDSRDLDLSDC", "test": "SAR analysis of antagonists of the Cannabinoid Receptor 2 using an Image-Based Assay. [Related pubchem assays (depositor defined):AID2013, AID2026]", "format": "functional"}, "[2]": {"target": "T2, G-protein coupled receptor 35 (Homo sapiens, UniProt Q9HC97)", "T2 sequence (Q9HC97 whole entry)": "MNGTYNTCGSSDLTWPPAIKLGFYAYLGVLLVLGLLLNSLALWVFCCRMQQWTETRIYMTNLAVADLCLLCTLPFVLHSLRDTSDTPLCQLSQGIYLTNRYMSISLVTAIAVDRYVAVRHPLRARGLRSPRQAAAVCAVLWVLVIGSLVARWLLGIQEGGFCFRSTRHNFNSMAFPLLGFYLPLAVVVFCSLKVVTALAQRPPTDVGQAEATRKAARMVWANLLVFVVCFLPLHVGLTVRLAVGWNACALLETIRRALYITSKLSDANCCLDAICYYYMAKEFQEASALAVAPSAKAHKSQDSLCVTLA", "test": "SAR analysis of Agonists of the GPR35 Receptor using an Image-Based Assay - Set 2. [Related pubchem assays (depositor defined):AID2013, AID2026]", "format": "functional"}, "[3]": {"system": "INS1", "test": "INS-1E survival protection against cytokine death – cell-based, luminescence, retest, dose response (AID 449756);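 note: cell death triggered by IL-1 beta plus TNF-alpha plus IFN-gamma mixture; protective hits raise ATP signal compared with cytokine alone wells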", "format": "functional", "settings": "Rattus norvegicus"}, "[4]": {"test": "loss of viability in HepG2 cells – cell-based, CellTiter-Glo, cherry-picked, cytotoxicity control for Shn3 inhibitor project, dose response (AID 624134)", "format": "functional"}, "[5]": {"test": "non-specific 3'UTR reporter inhibition in Clone20-Shn3RL – cell-based, Renilla luciferase, cherry-picked, counter-screen for Shn3 inhibitor project, dose response (AID 624133)", "format": "functional"}, "[6]": {"target": "T1, Cannabinoid receptor 2", "test": "SAR analysis of agonists of the Cannabinoid Receptor 2 using an Image-Based Assay. [Related pubchem assays (depositor defined):AID2013, AID2026]", "format": "functional"}, "[7]": {"test": "reduction of Shn3 3'UTR-driven luciferase in osteoblasts – cell-based, Clone20 osteoblasts, firefly luciferase, cherry-picked, dose response (AID 624132)", "format": "functional"}, "[8]": {"target": "T3, G-protein coupled receptor 55 (Homo sapiens, UniProt Q9Y2T6)", "T3 sequence (Q9Y2T6 whole entry)": "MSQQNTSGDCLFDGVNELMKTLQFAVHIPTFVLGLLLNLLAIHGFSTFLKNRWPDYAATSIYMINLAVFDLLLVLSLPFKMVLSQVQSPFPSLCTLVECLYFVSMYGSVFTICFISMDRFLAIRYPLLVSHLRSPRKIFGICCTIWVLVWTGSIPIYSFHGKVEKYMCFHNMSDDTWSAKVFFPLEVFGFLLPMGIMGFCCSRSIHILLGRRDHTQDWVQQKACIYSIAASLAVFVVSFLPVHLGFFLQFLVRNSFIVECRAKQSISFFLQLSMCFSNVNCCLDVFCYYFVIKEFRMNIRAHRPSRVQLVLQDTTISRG", "test": "blockade of LPI-induced GPR55 arrestin translocation – imaging, U2OS, beta-arrestin-GFP, LPI agonist, set 2, SAR follow-up (AID 2820)", "format": "functional"}, "[9]": {"target": "T3, G-protein coupled receptor 55", "test": "SAR Analysis of Selective Antagonists of GPR55 using an Image-Based Assay - Set 4. [Related pubchem assays (depositor defined):AID2013, AID2026]", "format": "functional"}, "[10]": {"target": "T1, Cannabinoid receptor 2", "test": "SAR analysis of antagonists of the Cannabinoid Receptor 2 using an Image-Based Assay - Set 3. [Related pubchem assays (depositor defined):AID2013, AID2026]", "format": "functional"}, "[11]": {"target": "T4, Cannabinoid receptor 1 (Homo sapiens, UniProt P21554)", "T4 sequence (P21554 whole entry)": "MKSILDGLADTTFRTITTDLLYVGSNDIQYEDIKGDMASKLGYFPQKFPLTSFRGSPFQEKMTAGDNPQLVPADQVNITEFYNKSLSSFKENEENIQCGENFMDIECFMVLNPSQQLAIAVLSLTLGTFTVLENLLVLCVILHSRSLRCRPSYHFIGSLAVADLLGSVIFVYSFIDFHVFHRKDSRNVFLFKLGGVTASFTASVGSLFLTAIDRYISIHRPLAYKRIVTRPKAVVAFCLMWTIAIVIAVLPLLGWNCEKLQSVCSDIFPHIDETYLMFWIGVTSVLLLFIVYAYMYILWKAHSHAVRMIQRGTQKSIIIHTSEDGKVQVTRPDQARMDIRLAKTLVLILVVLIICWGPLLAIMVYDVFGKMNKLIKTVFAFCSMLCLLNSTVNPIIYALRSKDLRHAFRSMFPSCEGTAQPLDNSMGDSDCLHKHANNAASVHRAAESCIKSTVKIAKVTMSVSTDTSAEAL", "test": "SAR analysis of antagonists of the Cannabinoid Receptor 1 using an Image-Based Assay - Set 4. [Related pubchem assays (depositor defined):AID2013, AID2026]", "format": "functional"}, "[12]": {"target": "T2, G-protein coupled receptor 35", "test": "SAR analysis of Antagonists of the GPR35 Receptor using an Image-Based Assay - Set 3. [Related pubchem assays (depositor defined):AID2013, AID2026]", "format": "functional"}, "[13]": {"target": "T4, Cannabinoid receptor 1", "test": "SAR analysis of agonists of the Cannabinoid Receptor 1 using an Image-Based Assay - Set 2. [Related pubchem assays (depositor defined):AID2013, AID2026]", "format": "functional"}, "[14]": {"target": "T1, Cannabinoid receptor 2", "test": "SAR analysis of agonists of the Cannabinoid Receptor 2 using an Image-Based Assay - Set 3. [Related pubchem assays (depositor defined):AID2013, AID2026]", "format": "functional"}, "[15]": {"target": "T3, G-protein coupled receptor 55", "test": "inhibition of LPI-stimulated GPR55 beta-arrestin translocation – imaging, U2OS, beta-arrestin-GFP, LPI agonist, primary screen (AID 2013);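 note: antagonist potency measured as reduced agonist-driven arrestin aggregation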", "format": "functional"}, "[16]": {"target": "T4, Cannabinoid receptor 1", "test": "SAR analysis of antagonists of the Cannabinoid Receptor 1 using an Image-Based Assay - Set 2. [Related pubchem assays (depositor defined):AID2013, AID2026]", "format": "functional"}, "[17]": {"target": "SUMO-activating enzyme (Homo sapiens, UniProt Q9UBT2)", "sequence (Q9UBE0 whole entry)": "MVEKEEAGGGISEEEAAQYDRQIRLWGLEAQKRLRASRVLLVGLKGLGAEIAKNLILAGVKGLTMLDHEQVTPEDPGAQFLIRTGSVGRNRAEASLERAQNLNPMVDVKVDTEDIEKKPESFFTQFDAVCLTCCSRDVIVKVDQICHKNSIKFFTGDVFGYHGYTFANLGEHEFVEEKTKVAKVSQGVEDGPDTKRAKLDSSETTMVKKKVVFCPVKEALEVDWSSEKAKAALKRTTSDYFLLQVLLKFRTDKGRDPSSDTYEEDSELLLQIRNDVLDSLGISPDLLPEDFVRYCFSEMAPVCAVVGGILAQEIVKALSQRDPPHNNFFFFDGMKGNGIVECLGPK", "sequence (Q9UBT2 whole entry)": "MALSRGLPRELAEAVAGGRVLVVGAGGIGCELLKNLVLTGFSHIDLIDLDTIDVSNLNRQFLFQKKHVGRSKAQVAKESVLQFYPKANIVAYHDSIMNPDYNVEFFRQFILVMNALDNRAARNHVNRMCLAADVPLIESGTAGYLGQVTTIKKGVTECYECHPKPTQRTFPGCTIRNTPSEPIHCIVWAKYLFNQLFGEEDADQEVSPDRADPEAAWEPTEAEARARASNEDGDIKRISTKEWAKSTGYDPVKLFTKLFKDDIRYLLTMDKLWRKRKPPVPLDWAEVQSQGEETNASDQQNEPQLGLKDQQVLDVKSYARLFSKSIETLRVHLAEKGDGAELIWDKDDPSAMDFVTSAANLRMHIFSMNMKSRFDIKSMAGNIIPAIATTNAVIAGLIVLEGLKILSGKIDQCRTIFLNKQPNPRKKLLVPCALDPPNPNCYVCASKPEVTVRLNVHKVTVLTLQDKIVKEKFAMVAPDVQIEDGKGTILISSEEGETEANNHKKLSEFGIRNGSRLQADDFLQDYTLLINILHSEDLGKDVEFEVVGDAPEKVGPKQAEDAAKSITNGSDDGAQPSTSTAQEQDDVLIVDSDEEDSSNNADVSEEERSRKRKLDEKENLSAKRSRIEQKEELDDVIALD", "test": "blockers of UBC9-mediated SUMO conjugation – biochemical, AlphaScreen, SUMOylation inhibitor project, confirmation (AID 2018)", "format": "functional"}, "[18]": {"target": "Albumin (Bos taurus, UniProt P02769)", "sequence (P02769 whole entry)": "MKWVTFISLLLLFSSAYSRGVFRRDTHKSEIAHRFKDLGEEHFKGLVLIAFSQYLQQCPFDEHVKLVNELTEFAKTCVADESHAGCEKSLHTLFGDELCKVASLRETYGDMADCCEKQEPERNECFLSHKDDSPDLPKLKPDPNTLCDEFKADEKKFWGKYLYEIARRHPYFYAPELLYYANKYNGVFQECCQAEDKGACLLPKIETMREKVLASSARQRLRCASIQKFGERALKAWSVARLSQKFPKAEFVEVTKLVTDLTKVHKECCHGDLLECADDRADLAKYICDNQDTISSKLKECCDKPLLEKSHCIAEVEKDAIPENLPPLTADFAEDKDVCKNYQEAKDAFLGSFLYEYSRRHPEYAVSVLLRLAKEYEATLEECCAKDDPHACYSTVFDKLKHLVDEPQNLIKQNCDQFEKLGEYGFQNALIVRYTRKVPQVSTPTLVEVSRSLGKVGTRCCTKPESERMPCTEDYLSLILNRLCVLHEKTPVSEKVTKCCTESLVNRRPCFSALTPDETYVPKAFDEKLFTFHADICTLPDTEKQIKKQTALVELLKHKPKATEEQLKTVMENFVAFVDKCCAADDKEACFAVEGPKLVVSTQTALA", "test": "Counterscreen for inhibitors of T-cell receptor (TCR)-CD3 interaction: Fluorescence-based biochemical high throughput dose response assay to identify inhibitors of T-cell receptor (TCR)-CD3 interaction using a TAMRA-labeled BSA probe.", "format": "functional"}, "[19]": {"test": "Counterscreen for AddAB inhibitors: absorbance-based bacterial cell-based high throughput dose response assay for inhibitors of bacterial viability. [Related pubchem assays (depositor defined):AID435030, AID449728, AID449731, AID488942, AID488955, AID488956]", "format": "functional"}, "[20]": {"target": "T5, Exodeoxyribonuclease V (Escherichia coli (strain K12), UniProt P04993+P07648+P08394)", "T5 sequence (P04993 whole entry)": "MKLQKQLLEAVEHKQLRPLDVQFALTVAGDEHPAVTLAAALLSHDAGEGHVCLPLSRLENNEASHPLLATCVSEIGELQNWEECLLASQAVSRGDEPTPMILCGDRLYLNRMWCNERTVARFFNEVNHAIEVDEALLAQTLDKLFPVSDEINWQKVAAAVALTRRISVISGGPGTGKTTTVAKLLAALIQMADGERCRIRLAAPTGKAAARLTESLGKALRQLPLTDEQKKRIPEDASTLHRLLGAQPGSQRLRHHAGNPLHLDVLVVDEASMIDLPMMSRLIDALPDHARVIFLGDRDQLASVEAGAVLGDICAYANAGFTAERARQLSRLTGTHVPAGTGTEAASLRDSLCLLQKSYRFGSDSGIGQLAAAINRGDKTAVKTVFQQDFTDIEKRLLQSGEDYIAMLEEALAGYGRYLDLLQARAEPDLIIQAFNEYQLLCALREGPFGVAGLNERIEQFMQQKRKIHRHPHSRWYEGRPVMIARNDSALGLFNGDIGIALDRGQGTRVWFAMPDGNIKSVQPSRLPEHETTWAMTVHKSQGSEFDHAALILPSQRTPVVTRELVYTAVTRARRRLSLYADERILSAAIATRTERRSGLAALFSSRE", "T5 sequence (P07648 whole entry)": "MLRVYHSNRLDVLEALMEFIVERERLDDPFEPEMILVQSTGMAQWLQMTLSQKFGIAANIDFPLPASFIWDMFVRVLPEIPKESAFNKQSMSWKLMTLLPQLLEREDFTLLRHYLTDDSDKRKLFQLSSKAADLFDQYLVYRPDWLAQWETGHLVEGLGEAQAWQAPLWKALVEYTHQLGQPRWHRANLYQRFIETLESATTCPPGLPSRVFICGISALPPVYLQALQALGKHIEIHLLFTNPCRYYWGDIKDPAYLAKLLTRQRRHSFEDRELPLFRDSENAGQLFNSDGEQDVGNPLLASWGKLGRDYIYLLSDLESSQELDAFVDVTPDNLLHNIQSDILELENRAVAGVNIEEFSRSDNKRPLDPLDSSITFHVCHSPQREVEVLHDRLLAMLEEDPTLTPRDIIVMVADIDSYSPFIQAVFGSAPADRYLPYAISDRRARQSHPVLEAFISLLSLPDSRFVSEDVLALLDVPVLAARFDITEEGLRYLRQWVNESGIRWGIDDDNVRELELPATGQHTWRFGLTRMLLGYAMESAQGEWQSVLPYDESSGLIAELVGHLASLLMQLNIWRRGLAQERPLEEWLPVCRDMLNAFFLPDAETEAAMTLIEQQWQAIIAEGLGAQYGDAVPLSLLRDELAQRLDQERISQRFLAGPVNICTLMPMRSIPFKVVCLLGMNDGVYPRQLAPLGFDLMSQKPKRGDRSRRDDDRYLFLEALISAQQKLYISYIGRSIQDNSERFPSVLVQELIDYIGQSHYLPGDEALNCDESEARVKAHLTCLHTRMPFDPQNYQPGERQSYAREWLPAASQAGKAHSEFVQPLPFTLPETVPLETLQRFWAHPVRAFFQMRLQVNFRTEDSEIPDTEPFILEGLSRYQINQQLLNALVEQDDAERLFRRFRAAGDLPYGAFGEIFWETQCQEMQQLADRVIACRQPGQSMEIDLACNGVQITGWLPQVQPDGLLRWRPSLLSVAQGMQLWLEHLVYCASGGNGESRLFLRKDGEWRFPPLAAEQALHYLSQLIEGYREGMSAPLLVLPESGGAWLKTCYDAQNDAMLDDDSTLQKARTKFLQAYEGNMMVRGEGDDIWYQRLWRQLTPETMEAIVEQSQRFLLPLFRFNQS", "T5 sequence (P08394 whole entry)": "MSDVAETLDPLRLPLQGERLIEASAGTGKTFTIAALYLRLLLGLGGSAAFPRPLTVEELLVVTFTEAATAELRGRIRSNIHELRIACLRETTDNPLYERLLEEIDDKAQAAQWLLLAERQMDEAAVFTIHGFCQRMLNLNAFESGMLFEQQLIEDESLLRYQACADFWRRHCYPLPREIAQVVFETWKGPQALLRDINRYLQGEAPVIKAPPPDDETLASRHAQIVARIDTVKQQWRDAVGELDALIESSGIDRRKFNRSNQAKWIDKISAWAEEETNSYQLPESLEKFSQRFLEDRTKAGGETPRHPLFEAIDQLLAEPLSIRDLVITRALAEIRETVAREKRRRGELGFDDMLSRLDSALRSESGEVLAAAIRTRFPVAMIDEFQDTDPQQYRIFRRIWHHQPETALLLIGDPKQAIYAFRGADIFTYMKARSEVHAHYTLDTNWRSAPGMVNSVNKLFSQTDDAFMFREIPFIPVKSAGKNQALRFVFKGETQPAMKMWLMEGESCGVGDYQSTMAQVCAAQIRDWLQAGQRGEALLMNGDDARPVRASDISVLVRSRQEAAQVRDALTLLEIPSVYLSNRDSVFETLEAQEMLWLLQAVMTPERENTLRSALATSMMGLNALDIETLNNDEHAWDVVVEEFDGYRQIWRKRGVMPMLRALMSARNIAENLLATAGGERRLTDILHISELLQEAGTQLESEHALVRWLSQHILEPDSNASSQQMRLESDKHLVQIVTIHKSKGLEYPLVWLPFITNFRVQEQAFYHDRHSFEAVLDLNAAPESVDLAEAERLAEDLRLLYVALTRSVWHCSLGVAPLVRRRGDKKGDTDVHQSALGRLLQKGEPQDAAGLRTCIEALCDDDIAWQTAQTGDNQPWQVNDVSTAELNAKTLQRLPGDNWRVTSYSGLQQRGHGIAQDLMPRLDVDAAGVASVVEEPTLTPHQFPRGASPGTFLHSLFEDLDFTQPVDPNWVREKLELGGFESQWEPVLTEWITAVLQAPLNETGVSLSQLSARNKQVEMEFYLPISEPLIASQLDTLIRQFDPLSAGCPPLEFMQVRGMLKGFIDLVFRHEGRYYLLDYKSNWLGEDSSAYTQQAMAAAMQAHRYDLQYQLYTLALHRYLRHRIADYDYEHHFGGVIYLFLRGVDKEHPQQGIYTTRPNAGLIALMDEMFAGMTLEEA", "test": "RecBCD inhibition via phage-restricted bacterial growth – absorbance, V66 E. coli, mutant T4 phage, counter-screen for AddAB inhibitor project, dose response (AID 492957)", "format": "functional, cell-based, Escherichia coli str. K-12 substr. MG1655"}}, "note": "Calls of active or inactive are those of the source."}
{"smiles": "Cc1nc(N2CCN(C(=O)c3ccco3)CC2)c2c3c(sc2n1)CC(C)CC3", "note": "(stereo not given)", "values": [{"measurement": "IC50", "setting": "[1]", "value": "> 32 µM (inactive)"}, {"measurement": "EC50", "setting": "[2]", "value": "> 32 µM (inactive)"}, {"measurement": "AC50", "setting": "[3]", "value": "6.56 µM (active)"}, {"measurement": "AC50", "setting": "[4]", "value": "50.5 µM (active)"}, {"measurement": "AC50", "setting": "[5]", "value": "4.08 µM (active)"}, {"measurement": "EC50", "setting": "[6]", "value": "> 32 µM (inactive)"}, {"measurement": "AC50", "setting": "[7]", "value": "2.33 µM (active)"}, {"measurement": "IC50", "setting": "[8]", "value": "0.342 µM (active)"}, {"measurement": "IC50", "setting": "[9]", "value": "0.527 µM (active)"}, {"measurement": "IC50", "setting": "[10]", "value": "> 32 µM (inactive)"}, {"measurement": "IC50", "setting": "[11]", "value": "3.17 µM (active)"}, {"measurement": "IC50", "setting": "[12]", "value": "> 32 µM (inactive)"}, {"measurement": "EC50", "setting": "[13]", "value": "> 32 µM (inactive)"}, {"measurement": "EC50", "setting": "[14]", "value": "28.2 µM (inactive)"}, {"measurement": "IC50", "setting": "[15]", "value": "0.653 µM (active)"}, {"measurement": "IC50", "setting": "[16]", "value": "> 32 µM (inactive)"}]}
{"smiles": "O=C(CN1C(=O)S/C(=C\\c2ccccc2)C1=O)NNC(=O)c1ccccc1O", "values": [{"measurement": "IC50", "setting": "[17]", "value": "38.2 µM (active)"}, {"measurement": "IC50", "setting": "[18]", "value": "> 94.1 µM (inactive)"}, {"measurement": "IC50", "setting": "[19]", "value": "> 119 µM (inactive)"}, {"measurement": "IC50", "setting": "[20]", "value": "> 119 µM (inactive)"}]}
